Test results reported in US10004732B2 (Novartis AG, priority 2014, dated 2018).
Structures can show the parent of a compound that is named as a salt.

Tests used:
PI 3-kinase alpha [1] = biological target: T1, PI 3-kinase alpha (Homo sapiens, UniProt P42336); assay: Kinase Glo Luminescent Kinase Assay (Kglo), assay A; assay type: biochemical; conditions: read-out: Assay A PI3Kα IC50
Target sequence in this assay (P42336 whole entry): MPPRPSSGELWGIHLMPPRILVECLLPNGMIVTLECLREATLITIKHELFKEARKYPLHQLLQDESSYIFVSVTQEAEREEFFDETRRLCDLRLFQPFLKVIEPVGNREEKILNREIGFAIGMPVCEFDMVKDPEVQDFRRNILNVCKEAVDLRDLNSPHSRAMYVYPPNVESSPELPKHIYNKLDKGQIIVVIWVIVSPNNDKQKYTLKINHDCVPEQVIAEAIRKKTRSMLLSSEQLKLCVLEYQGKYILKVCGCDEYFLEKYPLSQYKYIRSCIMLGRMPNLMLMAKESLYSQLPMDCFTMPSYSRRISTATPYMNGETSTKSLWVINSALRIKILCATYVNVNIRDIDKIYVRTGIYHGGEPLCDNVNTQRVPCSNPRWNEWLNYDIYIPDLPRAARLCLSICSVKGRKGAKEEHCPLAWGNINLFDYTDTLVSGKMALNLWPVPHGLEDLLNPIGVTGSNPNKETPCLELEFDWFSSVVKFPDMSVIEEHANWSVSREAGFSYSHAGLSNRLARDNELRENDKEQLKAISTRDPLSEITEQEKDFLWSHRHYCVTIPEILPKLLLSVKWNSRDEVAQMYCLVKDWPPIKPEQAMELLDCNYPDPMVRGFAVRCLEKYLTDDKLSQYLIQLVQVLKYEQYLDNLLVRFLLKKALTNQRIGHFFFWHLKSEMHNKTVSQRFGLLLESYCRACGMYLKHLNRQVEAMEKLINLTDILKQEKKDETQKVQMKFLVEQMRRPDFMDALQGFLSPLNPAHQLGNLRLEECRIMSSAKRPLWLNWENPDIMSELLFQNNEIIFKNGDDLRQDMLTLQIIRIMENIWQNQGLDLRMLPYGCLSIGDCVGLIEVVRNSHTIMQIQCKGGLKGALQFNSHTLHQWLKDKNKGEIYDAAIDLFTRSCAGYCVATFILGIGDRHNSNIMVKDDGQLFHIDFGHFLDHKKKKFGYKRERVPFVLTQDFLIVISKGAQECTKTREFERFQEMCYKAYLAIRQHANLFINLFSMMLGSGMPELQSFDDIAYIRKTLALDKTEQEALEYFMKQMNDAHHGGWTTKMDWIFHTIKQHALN

PI 3-kinase beta [2] = biological target: T2, PI 3-kinase beta (Homo sapiens, UniProt P42338); assay: Kinase Glo Luminescent Kinase Assay (Kglo), assay B; assay type: biochemical; conditions: read-out: Assay B PI3Kβ IC50
Target sequence in this assay (P42338 whole entry): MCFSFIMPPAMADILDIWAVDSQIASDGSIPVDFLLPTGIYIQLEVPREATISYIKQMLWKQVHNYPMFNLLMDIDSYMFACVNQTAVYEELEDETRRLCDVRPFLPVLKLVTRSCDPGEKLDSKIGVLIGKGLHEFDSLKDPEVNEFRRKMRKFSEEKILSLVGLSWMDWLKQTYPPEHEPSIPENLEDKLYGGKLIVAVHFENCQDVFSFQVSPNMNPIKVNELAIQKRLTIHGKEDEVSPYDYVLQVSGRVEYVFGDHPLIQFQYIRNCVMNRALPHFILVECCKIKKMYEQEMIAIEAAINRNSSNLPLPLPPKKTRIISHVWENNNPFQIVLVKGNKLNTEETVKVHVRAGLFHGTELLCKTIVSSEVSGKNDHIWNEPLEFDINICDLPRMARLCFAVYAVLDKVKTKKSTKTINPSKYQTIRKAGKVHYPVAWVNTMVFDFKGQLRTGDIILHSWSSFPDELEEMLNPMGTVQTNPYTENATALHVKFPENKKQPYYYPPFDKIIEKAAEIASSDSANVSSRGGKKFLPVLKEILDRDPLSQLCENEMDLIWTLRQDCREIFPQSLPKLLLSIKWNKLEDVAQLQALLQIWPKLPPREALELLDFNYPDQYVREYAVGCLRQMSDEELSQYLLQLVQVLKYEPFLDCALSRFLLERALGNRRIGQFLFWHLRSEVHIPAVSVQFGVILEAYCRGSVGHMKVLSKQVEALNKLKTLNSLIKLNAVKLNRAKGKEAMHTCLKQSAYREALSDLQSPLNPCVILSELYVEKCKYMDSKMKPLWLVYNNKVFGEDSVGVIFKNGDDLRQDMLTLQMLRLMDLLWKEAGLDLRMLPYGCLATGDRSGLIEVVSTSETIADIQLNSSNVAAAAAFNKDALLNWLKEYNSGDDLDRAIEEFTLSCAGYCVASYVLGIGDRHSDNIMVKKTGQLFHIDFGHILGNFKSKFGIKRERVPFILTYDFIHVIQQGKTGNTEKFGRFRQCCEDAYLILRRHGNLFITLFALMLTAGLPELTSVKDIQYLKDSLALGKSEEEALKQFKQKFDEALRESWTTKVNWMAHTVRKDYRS
Target sequence in this assay (P27986 461-568 partner): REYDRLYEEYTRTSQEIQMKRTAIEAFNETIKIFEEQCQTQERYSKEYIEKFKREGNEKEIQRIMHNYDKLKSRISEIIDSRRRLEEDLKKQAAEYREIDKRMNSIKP

Vps34 = Vps34 (Homo sapiens, UniProt Q8NEB9); assay: Kinase Glo Luminescent Kinase Assay (Kglo), assay C; assay type: biochemical; conditions: read-out: Assay C VPS34 IC50
PI 4-kinase beta = PI 4-kinase beta (Homo sapiens, UniProt Q9UBF8); assay: Kinase Glo Luminescent Kinase Assay (Kglo), assay D; assay type: biochemical; conditions: read-out: Assay D PI4Kβ IC50
PI 3-kinase gamma [3] = biological target: T3, PI 3-kinase gamma (Homo sapiens, UniProt P48736); assay: TR-FRET Adapta assay, assay E; assay type: biochemical; conditions: read-out: Assay E PI3Kγ IC50
mTOR = mTOR (Homo sapiens, UniProt P42345); assay: Lanthascreen kinase binding assay, assay G; conditions: read-out: Assay G mTOR IC50
Experimental: Lanthascreen™ Kinase Binding Assay for mTOR (G)
Binding of an inhibitor to the kinase competes for binding with the tracer, resulting in a loss of FRET.
50 nL of compound dilutions were dispensed onto white 384-well small volume polystyrene plate.

PI 3-kinase alpha [4] = biological target: T1, PI 3-kinase alpha; assay: Cellular assay H1, p-Akt (S473) in Rat-1 cells, Surefire format; assay type: cell-based; conditions: non-asterisked data: version H1 (Surefire format), Rat-1 cells; read-out: Assay H PI3Kα IC50
Target sequence in this assay (P42336 whole entry): as the sequence (P42336 whole entry) above
Target sequence in this assay (Q63787 whole entry partner): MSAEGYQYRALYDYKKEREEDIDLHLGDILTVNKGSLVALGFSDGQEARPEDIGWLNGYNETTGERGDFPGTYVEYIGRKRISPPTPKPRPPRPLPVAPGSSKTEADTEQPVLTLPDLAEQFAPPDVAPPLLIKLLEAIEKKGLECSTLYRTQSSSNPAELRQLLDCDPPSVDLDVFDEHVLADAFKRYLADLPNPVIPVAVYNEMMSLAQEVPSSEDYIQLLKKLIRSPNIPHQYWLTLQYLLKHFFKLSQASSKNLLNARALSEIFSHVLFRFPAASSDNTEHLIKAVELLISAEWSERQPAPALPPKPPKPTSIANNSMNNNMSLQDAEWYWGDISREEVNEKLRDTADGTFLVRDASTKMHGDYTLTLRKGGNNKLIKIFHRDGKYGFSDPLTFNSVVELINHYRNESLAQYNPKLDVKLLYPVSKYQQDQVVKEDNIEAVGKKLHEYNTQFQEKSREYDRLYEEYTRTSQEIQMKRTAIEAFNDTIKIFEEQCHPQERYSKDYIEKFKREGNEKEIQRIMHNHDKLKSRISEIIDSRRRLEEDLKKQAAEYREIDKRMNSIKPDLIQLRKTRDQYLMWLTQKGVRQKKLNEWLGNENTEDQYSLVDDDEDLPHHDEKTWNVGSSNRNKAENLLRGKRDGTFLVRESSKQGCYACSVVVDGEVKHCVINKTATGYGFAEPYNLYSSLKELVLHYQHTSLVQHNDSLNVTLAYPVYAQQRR
Text: Cellular Assays for PI 3-Kinase Alpha (H1), Beta (I1) and Delta (J1): Surefire Format
AlphaScreen (Amplified Luminescent Proximity Homogeneous Assay, ALPHA, Perkin Elmer) is a non-radioactive bead-based proximity assay technology to study biomolecular interactions in a homogenous microtiter plate format. The brand name SureFire denotes AlphaScreen assays that are adapted to quantify the phosphorylation of endogenous cellular proteins in cell lysates, by using matched antibody pairs, which consist of an anti-phospho-kinase and an anti-kinase antibody. The assay allows characterization of kinase signaling in cells as well as measurement of kinase inhibitor effects.
Using Rat-1 cells stably expressing myr-HA-tagged versions of the human PI3Kdelta, PI3Kalpha, or PI3Kbeta p110 catalytic subunit isoforms, the assay was developed as a two-plate protocol in a 384-well format.
For compound testing, the cells were seeded at a density of 4000 (Rat-1_PI3Kdelta), 7500 (Rat-1_PI3Kalpha), or 6200 (Rat-1_PI3Kbeta) cells in 20 μl complete growth medium into cell culture treated 384-well plates and were grown at 37° C./5% CO2/90% humidity for 24 h. Shortly before compound transfer, the complete medium was removed, 30 μl assay buffer (DMEM high glucose, 1×MEM NEAA, 10 mM HEPES, 2 mM L-glutamine, 0.1% (w/v) BSA) was added and 10 μl of the compound predilutions were transferred to the cells.

PI 3-kinase beta [5] = biological target: T2, PI 3-kinase beta; assay: Cellular assay I1, p-Akt (S473) in Rat-1 cells, Surefire format; assay type: cell-based; conditions: non-asterisked data: version I1 (Surefire format), Rat-1 cells; read-out: Assay I PI3Kβ IC50
Target sequence in this assay (P42338 whole entry): as the sequence (P42338 whole entry) above
Target sequence in this assay (Q63787 whole entry partner): as the sequence (Q63787 whole entry partner) above

PI 3-kinase delta [6] = biological target: T4, PI 3-kinase delta (Homo sapiens, UniProt O00329); assay: Cellular assay J1, p-Akt (S473) in Rat-1 cells, Surefire format; assay type: cell-based; conditions: non-asterisked data: version J1 (Surefire format), Rat-1 cells; read-out: Assay J PI3Kδ IC50
Target sequence in this assay (O00329 whole entry): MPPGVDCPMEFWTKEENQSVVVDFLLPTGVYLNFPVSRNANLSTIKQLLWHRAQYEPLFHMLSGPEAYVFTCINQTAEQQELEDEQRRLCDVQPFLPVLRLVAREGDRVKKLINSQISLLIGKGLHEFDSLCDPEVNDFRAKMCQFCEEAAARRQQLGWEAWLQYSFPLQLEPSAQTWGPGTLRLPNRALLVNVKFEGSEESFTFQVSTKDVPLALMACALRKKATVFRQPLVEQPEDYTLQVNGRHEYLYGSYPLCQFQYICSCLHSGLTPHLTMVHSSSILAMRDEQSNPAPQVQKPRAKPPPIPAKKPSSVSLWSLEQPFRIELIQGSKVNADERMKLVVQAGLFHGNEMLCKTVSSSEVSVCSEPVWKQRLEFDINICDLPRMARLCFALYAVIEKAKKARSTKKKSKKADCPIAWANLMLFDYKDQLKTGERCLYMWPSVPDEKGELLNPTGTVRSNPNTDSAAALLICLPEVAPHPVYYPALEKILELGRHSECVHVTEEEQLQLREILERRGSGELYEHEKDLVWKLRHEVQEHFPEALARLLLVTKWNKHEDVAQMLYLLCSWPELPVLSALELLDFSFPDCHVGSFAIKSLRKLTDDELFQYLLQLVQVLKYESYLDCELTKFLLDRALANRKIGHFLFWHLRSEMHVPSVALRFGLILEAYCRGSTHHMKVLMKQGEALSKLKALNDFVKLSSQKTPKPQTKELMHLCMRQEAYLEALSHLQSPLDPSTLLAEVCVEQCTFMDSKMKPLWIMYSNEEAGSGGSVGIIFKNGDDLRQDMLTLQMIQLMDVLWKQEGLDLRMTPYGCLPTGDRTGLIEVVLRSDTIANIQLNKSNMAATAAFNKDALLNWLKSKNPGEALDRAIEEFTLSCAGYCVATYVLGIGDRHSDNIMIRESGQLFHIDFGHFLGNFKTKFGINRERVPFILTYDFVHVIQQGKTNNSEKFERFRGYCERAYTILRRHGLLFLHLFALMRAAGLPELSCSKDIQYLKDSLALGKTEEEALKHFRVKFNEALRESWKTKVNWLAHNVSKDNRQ
Target sequence in this assay (Q63787 whole entry partner): as the sequence (Q63787 whole entry partner) above

PI 3-kinase gamma [7] = biological target: T3, PI 3-kinase gamma; assay: Cellular U937 AKT assay K2 (HTRF); assay type: cell-based; conditions: U937 cells, K2 format; read-out: Assay K2 PI3Kγ IC50
PI 3-kinase delta [8] = biological target: T4, PI 3-kinase delta; assay: TR-FRET Adapta assay, assay F; conditions: read-out: Assay F PI3Kδ IC50
Target sequence in this assay (O00329 whole entry): as the sequence (O00329 whole entry) above
Target sequence in this assay (P27986 461-568 partner): as the sequence (P27986 461-568 partner) above

[9] = Microsomal clearance assay (M); conditions: intrinsic clearance in rat liver microsomes
Experimental: The experiments were performed in 96-well glass plates at 37° C. on an automated Tecan EVO platform. Test compounds at a concentration of 10 mM in pure DMSO were diluted 1:1000 in water to 10 μM. […] Reactions were initiated by the addition of 150 μL of a cofactor solution containing 2 mM NADPH.

PI 3-kinase gamma [10] = biological target: T3, PI 3-kinase gamma; assay: Cellular U937 AKT assay K1 (MSD); assay type: cell-based; conditions: U937 cells, K1 format; read-out: Assay K1 PI3Kγ IC50
[11] = tested on: IL-8-induced neutrophil shape change in human whole blood; assay: Whole blood neutrophil shape change assay (L); assay type: cell-based; conditions: Homo sapiens, Neutrophil, IL-8, human whole blood, read-out: Assay L WBSC IC50

Structure (SMILES)	IC50 (PI 3-kinase alpha [1]) [nM]	IC50 (PI 3-kinase beta [2]) [nM]	IC50 (Vps34) [nM]	IC50 (PI 4-kinase beta) [nM]	IC50 (PI 3-kinase gamma [3]) [nM]	IC50 (mTOR) [nM]	IC50 (PI 3-kinase alpha [4]) [nM]	IC50 (PI 3-kinase beta [5]) [nM]	IC50 (PI 3-kinase delta [6]) [nM]	IC50 (PI 3-kinase gamma [7]) [nM]	IC50 (PI 3-kinase delta [8]) [nM]	Assay M RLM CI(int) [9] [µL/min/mg]	IC50 (PI 3-kinase gamma [10]) [nM]	IC50 [11] [nM]
COC1(C)CN(S(=O)(=O)c2ccc(C)c(-c3cnc(N)c(-c4cn(C)nc4C)n3)c2)C1 [Example 102, 3-(1,3-Dimethyl-1H-pyrazol-4-yl)-5-(5-(3-methoxy-3-methylazetidin-1-ylsulfonyl)-2-methylphenyl)pyrazin-2-amine]	550	1800	> 10000	5900	150	2900	4530	5300	1330	211	900	75		
Cc1ccc(S(=O)(=O)NCC(C)(C)O)cc1-c1cnc(N)c(-c2ccoc2)n1 [Example 39, 3-(5-Amino-6-(furan-3-yl)pyrazin-2-yl)-N-(2-hydroxy-2-methylpropyl)-4-methylbenzenesulfonamide]	790	3950	> 9550	7050	67	> 9550				999	1070	88	192	
Cc1ccc(S(=O)(=O)NCCC(C)(C)O)cc1-c1cnc(N)c(-c2csc(CN3CCOCC3)c2)n1 [Example 30, 3-[5-Amino-6-(5-morpholin-4-ylmethyl-thiophen-3-yl)-pyrazin-2-yl]-N-(3-hydroxy-3-methyl-butyl)-4-methyl-benzenesulfonamide]	300	5210	> 9100	7890	24	6990	3810	1650	480		50	116	98	407
Cc1cnn(-c2nc(-c3cc(S(=O)(=O)N[C@H]4CC[C@H](O)CC4)ccc3C)cnc2N)c1 [Example 111, 3-(5-Amino-6-(4-methyl-1H-pyrazol-1-yl)pyrazin-2-yl)-N-((1r,4r)-4-hydroxycyclohexyl)-4-methylbenzenesulfonamide]	180	1980	> 9100	1960	18	> 9100	1470	> 10000	460		60	74	20	637
Cc1ncc(-c2nc(-c3cc(S(=O)(=O)NCC(C)(C)CO)ccc3C)cnc2N)s1 [Example 8, 3-[5-Amino-6-(2-methyl-thiazol-5-yl)-pyrazin-2-yl]-N-(3-hydroxy-2,2-dimethyl-propyl)-4-methyl-benzenesulfonamide]	40	1520	410	1960	< 3	270	750	6030	370		20	50	21	169
CCN1CCC[C@@H]1CNS(=O)(=O)c1ccc(C)c(-c2cnc(N)c(-c3cn(C)nc3C)n2)c1 [Example 27, 3-[5-Amino-6-(1,3-dimethyl-1H-pyrazol-4-yl)-pyrazin-2-yl]-N—((R)-1-ethyl-pyrrolidin-2-ylmethyl)-4-methyl-benzenesulfonamide hydrochloride]	210	870	> 10000	6650	47	7400	> 10000	> 10000	1020		70	60	58	562
Cc1cc(-c2nc(-c3cc(S(=O)(=O)N[C@H]4CC[C@H](O)CC4)ccc3C)cnc2N)on1 [Example 4, Trans-3-[5-Amino-6-(3-methyl-isoxazol-5-yl)-pyrazin-2-yl]-N-(4-hydroxy-cyclohexyl)-4-methyl-benzenesulfonamide]	510	3240	> 9100	3700	26	6510	2550	4460	910		300	27	38	675

More lines, now with the values ahead:

IC50 (PI 3-kinase alpha [1]) [nM]	IC50 (PI 3-kinase beta [2]) [nM]	IC50 (Vps34) [nM]	IC50 (PI 4-kinase beta) [nM]	IC50 (PI 3-kinase gamma [3]) [nM]	IC50 (mTOR) [nM]	IC50 (PI 3-kinase alpha [4]) [nM]	IC50 (PI 3-kinase beta [5]) [nM]	IC50 (PI 3-kinase delta [6]) [nM]	IC50 (PI 3-kinase gamma [7]) [nM]	IC50 (PI 3-kinase delta [8]) [nM]	Assay M RLM CI(int) [9] [µL/min/mg]	IC50 (PI 3-kinase gamma [10]) [nM]	IC50 [11] [nM]	Structure (SMILES)
1000	3000	> 10000	> 10000			> 10000	> 10000	1640	332	250				CCN1CCC[C@H]1CNS(=O)(=O)c1ccc(C)c(-c2cnc(N)c(-c3cn(C)nc3C)n2)c1 [Example 128.1, (S)-3-(5-Amino-6-(1,3-dimethyl-1H-pyrazol-4-yl)pyrazin-2-yl)-N-((1-ethylpyrrolidin-2-yl)methyl)-4-methylbenzenesulfonamide]
90	590	2000	3300	130					317	320	67			Cc1ncc(-c2nc(-c3cc(S(=O)(=O)N4CC(CO)C4)ccc3C)cnc2N)s1 [Example 45.8, (1-((3-(5-Amino-6-(2-methylthiazol-5-yl)pyrazin-2-yl)-4-methylphenyl)sulfonyl)azetidin-3-yl)methanol]
2550	6550	> 9550	4200	260	> 9550				1490	2500	85	1970		Cc1ccc(S(=O)(=O)N2CC(F)(F)C2)cc1-c1cnc(N)c(-n2cncn2)n1 [Example 127.4]
1300	6900	> 9100	> 9100	110	> 9100	> 10000	> 3000		> 10000	960	15	6210		Cc1cc(-c2nc(-c3cc(S(=O)(=O)NC[C@H]4CCNC4)ccc3C)cnc2N)ccn1 [Example 129.36, (S)-3-(5-amino-6-(2-methylpyridin-4-yl)pyrazin-2-yl)-4-methyl-N-(pyrrolidin-3-ylmethyl)benzenesulfonamide]
40	240	1600	1600	13					494	100	78			Cc1ncc(-c2nc(-c3cc(S(=O)(=O)NC4CCOCC4)ccc3C)cnc2N)s1 [Example 45.3, 3-(5-Amino-6-(2-methylthiazol-5-yl)pyrazin-2-yl)-4-methyl-N-(tetrahydro-2H-pyran-4-yl)benzenesulfonamide]
2000	7000	> 9100	> 9100	39	> 9100	> 10000	> 10000	> 10000		1800	18	800	2000	Cc1cc(-c2nc(-c3cc(S(=O)(=O)NCC4(O)COC4)ccc3C)cnc2N)ccn1 [Example 129.32, 3-(5-amino-6-(2-methylpyridin-4-yl)pyrazin-2-yl)-N-((3-hydroxyoxetan-3-yl)methyl)-4-methylbenzenesulfonamide]
2100	> 9100	> 9100	> 9100	89	> 9100				> 10000	1200				Cc1cc(-c2nc(-c3cc(S(=O)(=O)NC[C@@H]4CCNC4)ccc3C)cnc2N)ccn1 [Example 129.35, (R)-3-(5-amino-6-(2-methylpyridin-4-yl)pyrazin-2-yl)-4-methyl-N-(pyrrolidin-3-ylmethyl)benzenesulfonamide]
390	3790	6230	6610	22	> 9100	4010	3700	2350		190	21	81	1240	Cc1ccc(S(=O)(=O)NCCC(C)(C)O)cc1-c1cnc(N)c(-c2cnn(C)c2)n1 [Example 119.16]
